# Data: patent US20240269139A1, “COMPOUNDS FOR TARGETED PROTEIN DEGRADATION OF KINASES” (DANA-FARBER CANCER INSTITUTE, INC., priority 2020, published 2024)
# Like-named read-outs stand apart in the source and are kept apart here.
# Columns and labels:
# Format in all cases: cell-based
# [1] = target: protein kinases (human kinome) (Homo sapiens, UniProt O00746); conditions: NME4 (O00746); experiment wp084
# [2] = target: protein kinases (human kinome) (Homo sapiens, UniProt Q13882); conditions: for logFC PTK6 (Q13882): Experiment wp114, direction of change down; for logFC: PTK6 (Q13882), experiment wp114
# protein kinases (human kinome) (Homo sapiens, UniProt Q13882), sequence (Q13882 whole entry): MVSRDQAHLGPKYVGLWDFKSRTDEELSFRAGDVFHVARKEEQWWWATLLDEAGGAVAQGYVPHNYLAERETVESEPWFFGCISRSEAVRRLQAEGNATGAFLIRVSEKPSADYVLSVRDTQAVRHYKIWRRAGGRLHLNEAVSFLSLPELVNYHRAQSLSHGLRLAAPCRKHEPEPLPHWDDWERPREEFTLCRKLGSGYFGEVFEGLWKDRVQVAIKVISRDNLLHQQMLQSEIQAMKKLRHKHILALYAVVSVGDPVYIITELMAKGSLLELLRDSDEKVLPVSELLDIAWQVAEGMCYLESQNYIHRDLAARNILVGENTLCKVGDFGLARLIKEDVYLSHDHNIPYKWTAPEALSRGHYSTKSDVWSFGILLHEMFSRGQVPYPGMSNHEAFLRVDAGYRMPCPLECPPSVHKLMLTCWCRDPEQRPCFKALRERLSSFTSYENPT
# [3] = target: protein kinases (human kinome) (Homo sapiens, UniProt P48730); conditions: for logFC CSNK1D: Accession P48730-1, direction down
# protein kinases (human kinome) (Homo sapiens, UniProt P48730), sequence (P48730 whole entry): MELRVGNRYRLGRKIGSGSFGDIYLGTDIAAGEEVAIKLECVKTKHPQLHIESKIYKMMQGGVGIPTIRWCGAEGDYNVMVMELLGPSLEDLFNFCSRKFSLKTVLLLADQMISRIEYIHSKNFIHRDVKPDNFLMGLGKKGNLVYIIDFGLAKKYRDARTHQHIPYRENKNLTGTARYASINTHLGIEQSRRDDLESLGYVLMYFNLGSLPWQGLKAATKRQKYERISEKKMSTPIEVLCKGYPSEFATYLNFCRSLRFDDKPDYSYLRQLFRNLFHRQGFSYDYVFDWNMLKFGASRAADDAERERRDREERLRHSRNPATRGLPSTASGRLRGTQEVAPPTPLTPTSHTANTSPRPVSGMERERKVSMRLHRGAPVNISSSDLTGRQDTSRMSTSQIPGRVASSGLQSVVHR
# [4] = target: T1, protein kinases (human kinome) (Homo sapiens, UniProt Q86YV5); conditions: PRAG1 Q86YV5
# T1 sequence (Q86YV5 1-1406): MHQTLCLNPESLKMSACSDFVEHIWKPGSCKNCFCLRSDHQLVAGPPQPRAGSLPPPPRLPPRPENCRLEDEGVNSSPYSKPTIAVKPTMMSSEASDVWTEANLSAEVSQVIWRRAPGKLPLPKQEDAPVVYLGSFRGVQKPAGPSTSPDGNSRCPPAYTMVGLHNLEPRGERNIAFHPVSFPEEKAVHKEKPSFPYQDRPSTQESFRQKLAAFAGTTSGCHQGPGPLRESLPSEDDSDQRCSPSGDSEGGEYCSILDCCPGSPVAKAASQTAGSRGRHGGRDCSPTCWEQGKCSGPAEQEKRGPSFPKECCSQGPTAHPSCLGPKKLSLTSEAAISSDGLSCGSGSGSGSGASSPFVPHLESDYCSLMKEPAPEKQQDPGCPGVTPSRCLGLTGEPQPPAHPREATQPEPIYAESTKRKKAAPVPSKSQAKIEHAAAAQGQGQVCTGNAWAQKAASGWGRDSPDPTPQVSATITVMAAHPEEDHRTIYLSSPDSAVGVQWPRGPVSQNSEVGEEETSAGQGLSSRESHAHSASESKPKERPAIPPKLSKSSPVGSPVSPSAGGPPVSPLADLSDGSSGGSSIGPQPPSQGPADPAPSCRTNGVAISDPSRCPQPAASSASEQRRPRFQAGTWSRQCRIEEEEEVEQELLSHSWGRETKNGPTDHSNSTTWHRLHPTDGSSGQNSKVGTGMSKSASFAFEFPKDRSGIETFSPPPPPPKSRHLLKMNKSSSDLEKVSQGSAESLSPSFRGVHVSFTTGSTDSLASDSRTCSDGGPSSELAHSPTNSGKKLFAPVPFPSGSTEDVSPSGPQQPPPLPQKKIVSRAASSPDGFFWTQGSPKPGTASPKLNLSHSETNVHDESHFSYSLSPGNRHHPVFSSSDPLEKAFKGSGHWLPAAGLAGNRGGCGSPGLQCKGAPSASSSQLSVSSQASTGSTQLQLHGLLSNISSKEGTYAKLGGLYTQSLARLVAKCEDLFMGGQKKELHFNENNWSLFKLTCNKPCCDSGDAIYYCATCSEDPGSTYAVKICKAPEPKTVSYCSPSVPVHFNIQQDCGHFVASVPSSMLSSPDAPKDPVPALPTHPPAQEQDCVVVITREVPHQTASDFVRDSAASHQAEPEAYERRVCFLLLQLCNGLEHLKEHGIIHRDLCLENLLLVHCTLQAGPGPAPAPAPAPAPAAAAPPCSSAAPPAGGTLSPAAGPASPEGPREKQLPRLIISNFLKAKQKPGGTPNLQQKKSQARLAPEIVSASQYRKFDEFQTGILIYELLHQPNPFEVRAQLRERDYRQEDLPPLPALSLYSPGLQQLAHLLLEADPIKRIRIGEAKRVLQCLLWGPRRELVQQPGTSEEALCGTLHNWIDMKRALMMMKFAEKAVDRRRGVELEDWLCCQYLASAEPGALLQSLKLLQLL
# [5] = target: protein kinases (human kinome) (Homo sapiens, UniProt O00311); conditions: for logFC: CDC7 (O00311-1)
# protein kinases (human kinome) (Homo sapiens, UniProt O00311), sequence (O00311 whole entry): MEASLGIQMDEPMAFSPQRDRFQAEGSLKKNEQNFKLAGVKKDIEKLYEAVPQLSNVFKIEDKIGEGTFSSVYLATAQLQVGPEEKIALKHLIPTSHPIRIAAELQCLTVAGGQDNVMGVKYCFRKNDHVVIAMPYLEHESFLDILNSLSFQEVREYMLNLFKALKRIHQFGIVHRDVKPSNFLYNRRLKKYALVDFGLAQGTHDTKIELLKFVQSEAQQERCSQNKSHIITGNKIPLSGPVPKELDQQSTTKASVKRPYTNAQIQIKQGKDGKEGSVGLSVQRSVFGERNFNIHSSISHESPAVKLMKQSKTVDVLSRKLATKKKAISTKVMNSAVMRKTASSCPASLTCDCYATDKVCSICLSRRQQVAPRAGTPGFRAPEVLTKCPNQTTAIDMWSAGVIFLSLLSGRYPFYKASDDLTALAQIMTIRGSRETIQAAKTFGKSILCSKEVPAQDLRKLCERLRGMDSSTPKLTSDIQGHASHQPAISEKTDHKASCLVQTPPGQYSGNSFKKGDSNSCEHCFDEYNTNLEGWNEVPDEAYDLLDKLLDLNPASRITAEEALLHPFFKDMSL
# [6] = target: protein kinases (human kinome) (Homo sapiens, UniProt Q9P1W9); conditions: experiment wp076; for logFC: PIM2 (Q9P1W9)
# protein kinases (human kinome) (Homo sapiens, UniProt Q9P1W9), sequence (Q9P1W9 whole entry): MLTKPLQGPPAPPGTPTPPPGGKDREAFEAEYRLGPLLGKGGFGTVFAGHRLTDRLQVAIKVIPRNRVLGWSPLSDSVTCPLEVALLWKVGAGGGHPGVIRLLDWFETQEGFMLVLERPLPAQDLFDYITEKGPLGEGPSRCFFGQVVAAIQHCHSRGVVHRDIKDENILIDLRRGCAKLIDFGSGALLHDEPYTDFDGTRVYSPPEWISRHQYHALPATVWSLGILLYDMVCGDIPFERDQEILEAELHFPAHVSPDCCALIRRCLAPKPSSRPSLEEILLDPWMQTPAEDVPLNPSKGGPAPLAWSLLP
# [7] = target: T2, protein kinases (human kinome) (Homo sapiens, UniProt Q9NWZ3); conditions: for logFC: IRAK4 (Q9NWZ3-1)
# T2 sequence (Q9NWZ3 1-460): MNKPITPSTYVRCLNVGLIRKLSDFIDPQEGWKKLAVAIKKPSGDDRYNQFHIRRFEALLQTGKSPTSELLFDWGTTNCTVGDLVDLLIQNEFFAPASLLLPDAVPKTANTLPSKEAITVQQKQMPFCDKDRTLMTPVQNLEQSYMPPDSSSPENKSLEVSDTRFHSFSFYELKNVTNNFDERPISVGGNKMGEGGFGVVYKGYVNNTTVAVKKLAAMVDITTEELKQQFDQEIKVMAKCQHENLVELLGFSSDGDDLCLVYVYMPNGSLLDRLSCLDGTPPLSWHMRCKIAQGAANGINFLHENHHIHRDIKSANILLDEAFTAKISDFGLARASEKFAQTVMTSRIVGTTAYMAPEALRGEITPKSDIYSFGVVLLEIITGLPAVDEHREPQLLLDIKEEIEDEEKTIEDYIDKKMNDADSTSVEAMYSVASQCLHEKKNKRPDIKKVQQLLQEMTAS
# protein kinases (human kinome) (Homo sapiens, UniProt O00746), sequence (O00746 29-187): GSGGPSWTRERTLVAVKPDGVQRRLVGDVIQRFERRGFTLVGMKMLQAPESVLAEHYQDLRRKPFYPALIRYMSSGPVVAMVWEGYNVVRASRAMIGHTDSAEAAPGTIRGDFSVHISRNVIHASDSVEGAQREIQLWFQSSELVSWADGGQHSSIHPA
compound,measurement,setting,value
CC(=O)c1c(C)c2cnc(Nc3ccc(N4CCN(CCOCCOCCOCCNC(=O)COc5cccc6c5C(=O)N(C5CCC(=O)NC5=O)C6=O)CC4)cn3)nc2n(C2CCCC2)c1=O (centres unmarked) [BSJ.03.123],logFC,[1],−0.3681
CC(C)S(=O)(=O)c1ccccc1Nc1nc(Nc2ccc(N3CCN(CCOCCNC(=O)CNc4cccc5c4C(=O)N(C4CCC(=O)NC4=O)C5=O)CC3)cc2)ncc1Cl (centres unmarked) [SK.3.91],logFC PTK6 (Q13882),[2],−0.4171
same,logFC,[2],−0.4171
same,logFC CSNK1D,"[3]; experiment wp133, 4 hr",−0.4585
same,logFC of CSNK1D (P48730-1),"[3]; experiment wp133, 4 hr",−0.4585
same,logFC,[4]; experiment wp107,−0.3692
same,logFC PRAG1,[4]; experiment wp107,−0.3692
same,logFC,"[4]; experiment wp133, 2 hr",−0.3667
same,logFC PRAG1,"[4]; experiment wp133, 2 hr",−0.3667
same,logFC,"[4]; experiment wp133, 4 hr",−0.4352
same,logFC PRAG1,"[4]; experiment wp133, 4 hr",−0.4352
same,logFC,"[5]; experiment wp133, 4 hr",−0.3652
same,logFC of CDC7 (O00311-1),"[5]; experiment wp133, 4 hr",−0.3652
CCc1cnn2c(N(Cc3ccc(N)nc3)C(=O)CCOCCOCCOCCNC(=O)CNc3cccc4c3C(=O)N(C3CCC(=O)NC3=O)C4=O)cc(N3CCCC[C@H]3CCO)nc12 (some centres unmarked) [MFH.5.115.2],logFC,[6],−1.679
same,logFC of PIM2 (Q9P1W9),[6],−1.679
CC(C)S(=O)(=O)c1ccccc1Nc1nc(Nc2ccc(N3CCN(CCOCCOCCNC(=O)CNc4cccc5c4C(=O)N(C4CCC(=O)NC4=O)C5=O)CC3)cc2)ncc1Cl (centres unmarked) [TL12.186],logFC,[7]; experiment wp131,−0.4293
same,logFC,[7]; experiment wp137,−0.4185
same,logFC of IRAK4 (Q9NWZ3-1),[7]; experiment wp131,−0.4293
same,logFC of IRAK4 (Q9NWZ3-1),[7]; experiment wp137,−0.4185
same,logFC CSNK1D,[3]; experiment wp131,−0.3551
same,logFC of CSNK1D (P48730-1),[3]; experiment wp131,−0.3551
same,logFC,[4]; experiment wp131,−0.4243
same,logFC PRAG1,[4]; experiment wp131,−0.4243
same,logFC,[4]; experiment wp137,−0.3459
same,logFC PRAG1,[4]; experiment wp137,−0.3459
Cc1ncsc1-c1ccc([C@H](C)NC(=O)[C@@H]2C[C@@H](O)CN2C(=O)[C@@H](NC(=O)CCOCCOCCN2CCN(c3ccc(Nc4ncc(Cl)c(Nc5ccccc5S(=O)(=O)C(C)C)n4)cc3)CC2)C(C)(C)C)cc1 [FMF.06.098.1],logFC PTK6 (Q13882),[2],−0.4401
same,logFC,[2],−0.4401
same,logFC of IRAK4 (Q9NWZ3-1),[7]; Experiment wp108,−0.6505
same,logFC,[7]; experiment wp108,−0.6505
same,logFC,[7]; experiment wp131,−0.7086
same,logFC of IRAK4 (Q9NWZ3-1),[7]; experiment wp131,−0.7086
same,logFC,[5]; experiment wp108,−0.3323
same,logFC,[5]; experiment wp131,−0.4109
same,logFC of CDC7 (O00311-1),[5]; Experiment wp108,−0.3323
same,logFC of CDC7 (O00311-1),[5]; experiment wp131,−0.4109
O=C1CCC(N2C(=O)c3cccc(NCCCCCCCCN4CCC(NC(=O)c5[nH]ncc5NC(=O)c5c(Cl)cccc5Cl)CC4)c3C2=O)C(=O)N1 (centres unmarked) [MFH.5.126.1],logFC,[6],−3.019
same,logFC of PIM2 (Q9P1W9),[6],−3.019
CN(C)C(=O)c1cc2cnc(Nc3ccc(N4CCN(CCCCNC(=O)COc5cccc6c5C(=O)N(C5CCC(=O)NC5=O)C6=O)CC4)cn3)nc2n1C1CCCC1 (centres unmarked) [BSJ.04.132],logFC,[1],−0.4467
